Source: US20220143184A1, “MITOCHONDRION/RIBONUCLEIC ACID-TARGETED AND MIGRATABLE PHOTOSENSITIZED PROBE AND APPLICATION THEREOF” (SHENZHEN INSTITUTES OF ADVANCED TECHNOLOGY, priority 2019, published 2022)

Experiments:
[1] = Singlet oxygen generation in aqueous solution, ABDA absorbance (Example 8, Experiment 2); assay type: physicochemical; settings: for absorbance of ABDA at 378 nm with light irradiation: 50 μM ABDA, white light 300 mW/cm^2, 0-6 min
Experimental: (§1) Different reactive oxygen indicators were added to the photosensitized probe aqueous solution, and the fluorescence or absorption spectra were measured. Four experiments were conducted as follows:
50 μM ABDA was added to the aqueous solutions of PBS, 2 μM photosensitized probe, 2 μM photosensitized probe+0.8 mM RNA, and 2 μM RB (a commercial singlet oxygen-generating photosensitizer). These solutions were irradiated for 0-6 min with the white light (300 mW/cm^2) of the xenon lamp, absorption spectra at 300-600 nm were measured, and the absorbance values at 378 nm were recorded to indicate the generation rate of singlet oxygen.

ribonucleic acid [2] = test: Binding mode with ribonucleic acid, circular dichroism spectra (Example 14); settings: 10 μM in PBS, 5 min
Experimental: 10 μM (E)-4-(2-(5-methoxy-1H-indole-3-)vinyl)-1-methylquinolinium iodide was mixed with ribonucleic acid and deoxyribonucleic acid in PBS for 5 min, and the circular dichroism spectra were measured.

[3] = system: ribonucleic acid in the fixed cells; test: DNase and RNase digestion experiments in fixed HeLa cells (Example 4); assay type: cell-based; settings: 50 μg/mL RNase 2 h, 10 μM probe 30 min
Experimental: Preparation of fixed cells: firstly, the cover glasses (slides) covered with HeLa cells prepared in Example 2 were soaked in a 4% paraformaldehyde solution for 30 min, and then permeated with a 0.5% Triton X-100 at room temperature for 2 min to prepare fixed cells for staining.
Three groups of the above fixed cells were taken, in which, two groups were added with a 2 U/mL RNase-free DNase and a 50 μg/mL DNase-free RNase for digestion in the incubator for 2 h individually.
The stained slides were observed under a wide-field fluorescence microscope to record the stained regions, fluorescence distribution, and intensity changes in the cells.

HeLa cells [4] = test: Fluorescence imaging of live HeLa cells stained with the probe, before and after light irradiation (Example 3); assay type: cell-based; settings: 10 μM
Experimental: The following three groups of experiments were performed: (1) The cells were stained in darkness for 30 min, and then irradiated by a white light of the mercury lamp for 5 min; (2) The cells were stained in darkness for 30 min, without light irradiation. (1) The cells were stained in darkness for 10 min. (2) The cells were stained in darkness for 30 min. (3) The cells were stained in darkness for 60 min. (4) The cells were stained in darkness for 120 min. (1) The cells were stained for 30 min, and then irradiated by light at 510-560 nm for 10 seconds. (2) The cells were stained for 30 min, and then irradiated by light at 510-560 nm for 1 minute. (3) The cells were stained for 30 min, and then irradiated by light at 510-560 nm for 2 min. (4) The cells were stained for 30 min, and then irradiated by light at 510-560 nm for 3 min. (5) The cells were stained for 30 min, and then irradiated by light at 510-560 nm for 4 min. (6) The cells were stained for 30 min, and then irradiated by light at 510-560 nm for 5 min. The stained cells were observed under a fluorescence microscope and a confocal laser scanning microscope and the stained regions, fluorescence distributions, and intensity changes in cells were recorded.

HeLa cells [5] = test: Mitochondrial membrane potential of HeLa cells, JC-10 (Example 11); assay type: cell-based; settings: 10 μM probe, mercury lamp 510-560 nm
Experimental: The cells were observed under a confocal laser scanning microscope, and the fluorescence distribution and intensity changes in the cells before and after photodynamic therapy (irradiated by mercury lamp at 510-560 nm) were recorded.

ribonucleic acid [6] = test: Recognition of ribonucleic acid and deoxyribonucleic acid in solution, absorption/fluorescence spectra (Example 5); assay type: binding; settings: 10 μM probe
Experimental: A probe solution at concentration of 10 μM was mixed with a 120 μg/mL ribonucleic acid/deoxyribonucleic acid in PBS for 5 min, respectively, and then ultraviolet-visible absorption spectra and the fluorescence spectra under excitation at 488 nm were measured.

[7] = system: 4T1 cell subcutaneous tumor
Experimental: The 4T1 cells were cultured adherently in a culture medium containing a 10% fetal bovine serum, in a saturated humidity incubator with 5% CO2 at 37° C., and subcultured every 2-3 days. After the cells have grown to the logarithmic phase, the cells were subcutaneously inoculated into the right hind leg of a nude mouse: Specifically, the overgrown cells in the T25 cell culture flask were washed with 1 mL 0.25% trypsin, and then digested with another 1 mL 0.25% trypsin for 1 to 2 min. After adding the fresh medium, the cells were evenly pipetted, counted, centrifuged and washed with PBS three times, the cell density was controlled with the added amount of PBS to make a final concentration of cells to be 1×107 per milliliter. After that the cells were inoculated subcutaneously into the right hind leg of nude mice, each with approximately 1.2×10^6 cells. After the tumors grow for approximately a week, the mice were used for tumor photodynamic therapy and in vivo fluorescence imaging experiments.
The nude mouse tumor models prepared in Example 7 were divided into three groups for intratumor injection of drugs, with a dosage of 50 μL (1 mM) per tumor volume 100 mm^3.
After the photodynamic therapy, the tumor tissues are sectioned and stained with TUNEL and HE, and the results are shown in FIG. 19.

[8] = Generation rate of all types of reactive oxygen species in aqueous solution, DCFH (Example 8, Experiment 1); assay type: physicochemical; settings: 2 μM probe + 0.8 mM RNA, white light 300 mW/cm^2, 0-180 s
Experimental: as §1
10 μM 2′,7′-dichlorodihydrofluorescein (DCFH) was added to aqueous solutions of PBS, 2 μM photosensitized probe, 2 μM photosensitized probe of the application+0.8 mM RNA, and 2 μM Rose Bengal B (RB). These solutions were irradiated for 0-180 s with white light (300 mW/cm^2) of a xenon lamp with ultraviolet light filtered out, fluorescence spectra at 500-700 nm were measured under 488 nm excitation, and the fluorescence intensities at 529 nm were recorded to indicate the generation rate of all types of reactive oxygen species.

HeLa cells [9] = test: Photodynamic therapy efficiency to HeLa cells, MTT method (Example 16); assay type: cell-based; settings: 5-20 μM, 30 min in darkness, xenon lamp white light 5 min
Ribonucleic acid (RNA) = test: Specific fluorescence recognition of biomolecules in solution (Example 13); assay type: binding; settings: 2 μM probe
Experimental: After interaction for 5 min, the fluorescence spectra under excitation at 500 nm were measured, and the fluorescence intensities at 600 nm were recorded. Biomolecules include: Ribonucleic acid (RNA, 1.6 mM), deoxyribonucleic acid (DNA, 1.6 mM), amino acids (10 mM), hydrogen peroxide (10 mM), and metal ions (10 mM); in which, the amino acids include: Glutathione (GSH), homocysteine (Hcy), cysteine (Cys), glycine […], alanine (Ala), norvaline (Nor), glutamate (Glu), histidine (his), isoleucine (Iso), leucine (Leu), methionine (Met), phenylalanine (Phe), proline (Pro), serine (Ser), threonine (Thr), tryptophan (Try), and tyrosine (Tyr); and the metal ions include: Ca^2+, Fe^3+, Mg^2+, and Zn^2+.

[10] = Hydroxyl radical generation in aqueous solution, APF fluorescence (Example 8, Experiment 3); assay type: physicochemical; settings: 10 μM APF, white light 300 mW/cm^2, 0-180 s
Experimental: as §1
10 μM APF was added to the aqueous solutions of PBS, 2 μM photosensitized probe, 2 μM photosensitized probe+0.8 mM RNA, 2 μM RB (a commercial singlet oxygen-generating photosensitizer). These solutions were irradiated for 0-180 s with the white light (300 mW/cm^2) of the xenon lamp, the fluorescence spectra at 500-700 nm were measured, and the fluorescence intensities at 514 nm were recorded to indicate the generation rate of hydroxyl radical.

HeLa cells [11] = test: Cell morphology (DIC) of HeLa cells during photodynamic therapy (Example 12); assay type: cell-based; settings: 10 μM probe, 510-560 nm, 3 min irradiation
Experimental: The resulting stained cells and a control group without the photosensitized probe incubation were observed under a fluorescence microscope, and differential interference contrast images of the cells during the photodynamic therapy (irradiated with mercury lamp at 510-560 nm) were recorded.

HeLa cells [12] = test: Flow cytometry fluorescence intensity of HeLa cells before and after photodynamic therapy (Example 15); assay type: cell-based; settings: 10 μM 30 min, xenon lamp white light 5 min
Experimental: Three groups of HeLa cells prepared in Example 2 were washed three times with PBS. […] The three groups of cells were digested in darkness and dispersed in PBS, and the number of cells and their fluorescence intensities are recorded and analyzed by flow cytometry was.

[13] = system: mitochondria of HeLa cells; test: Colocalization with Mito-Tracker Green (MTG) in HeLa cells before and after photodynamic therapy (Example 10); assay type: cell-based; settings: 10 μM probe, 1 μM MTG
Experimental: The glass-bottom cell culture dishes covered with HeLa cells prepared in Example 2 were washed three times with PBS, then incubated with a 1 μM MTG in a CO2 incubator in darkness for 30 min. […] The stained cells were observed under a confocal laser scanning microscope, and fluorescence distribution and intensity changes in the cells before and after the photodynamic therapy (irradiated by mercury lamp at 510-560 nm) were recorded.

[14] = Oxygenous radicals by electron spin resonance with DMPO (Example 8, Experiment 4); assay type: physicochemical; settings: white light 300 mW/cm^2, 5 min
Experimental: as §1
DMPO was added to the aqueous solutions of RNA, 2 μM photosensitized probe of the application, 2 μM photosensitized probe+0.8 mM RNA. These solutions were irradiated for 5 min by the white light (300 mW/cm^2) of the xenon lamp. The electron spin resonance spectra before and after irradiation were measured, and the signal intensities indicate the amount of hydroxyl radicals.

HeLa cells [15] = test: Reactive oxygen species in HeLa cells before and after photodynamic therapy, DCFH-DA (Example 9); assay type: cell-based; settings: 10 μM probe, 10 μM DCFH-DA, mercury lamp 510-560 nm, 3 min
Experimental: The glass-bottom cell culture dishes covered with HeLa cells prepared in Example 2 were washed three times with PBS, then incubated with 10 μM DCFH-DA in a CO2 incubator in darkness for 30 min. […] The stained cells were observed under a confocal laser scanning microscope, and the fluorescence distribution and intensity changes in the cells before and after the photodynamic therapy (irradiated with mercury lamp at 510-560 nm) were recorded.

HeLa cells [16] = test: Dark toxicity to HeLa cells, MTT method (Example 16); assay type: cell-based; settings: 0-20 μM
Experimental: The HeLa cells prepared in Example 2 were incubated in a 96-well plate with 1×10^4 cells per well. […] The cell viability was determined by the MTT method to determine the dark toxicity of the probe.

[17] = 120 μg/mL RNA in PBS, 5 min, excitation 488 nm

O=C1OC2(c3cc(I)c(O)c(I)c3Oc3c2cc(I)c(O)c3I)c2c(Cl)c(Cl)c(Cl)c(Cl)c21 [RB, Rose Bengal B, reference compound]
absorbance of ABDA at 378 nm with light irradiation ([1]; 2 μM, without RNA): decreases much faster

COc1ccc2[nH]cc(/C=C/c3cc[n+](C)c4ccccc34)c2c1.[I-] [photosensitized probe 1, (E)-4-(2-(5-methoxy-1H-indole-3-)vinyl)-1-methylquinolinium iodide]
binding mode with ribonucleic acid (ribonucleic acid [2]): minor groove binding | circular dichroism spectrum after being mixed with DNA (ribonucleic acid [2]): no obvious change | circular dichroism spectrum after being mixed with RNA (ribonucleic acid [2]): negative Cotton effect | fluorescence of the cells treated with RNase versus control group [3]: much weaker than that of the control group | absorbance of ABDA at 378 nm with light irradiation ([1]; 2 μM probe + 0.8 mM RNA): slight decrease | singlet oxygen generation compared with RB ([1]; 2 μM, white light 300 mW/cm^2): generates less singlet oxygen | absorbance of ABDA at 378 nm with light irradiation ([1]; 2 μM, without RNA): slight decrease | fluorescence of live cells stained in darkness with increasing incubation time (HeLa cells [4]; darkness 10-120 min): relatively weak red fluorescence only in the cytoplasm regions | fluorescence with increasing light irradiation time (HeLa cells [4]; stained 30 min, 510-560 nm green light 10 s-5 min): the fluorescence gradually increases | fluorescence of live cells after light irradiation (HeLa cells [4]; stained 30 min, mercury lamp white light 5 min, 488 nm excitation): strong red fluorescence in the cytoplasm and nucleolus region | fluorescence of live cells without light irradiation (HeLa cells [4]; stained in darkness 30 min, 488 nm excitation, confocal): weak red fluorescence only in the cytoplasm region | mitochondria membrane potential after photodynamic therapy (JC-10 aggregates fluorescence) (HeLa cells [5]): significantly reduced | fluorescence emission peak after interacting with ribonucleic acid (ribonucleic acid [6]; [17]): around 600 nm | increase of fluorescence intensity in RNA solution compared with the probe itself (ribonucleic acid [6]; [17]): approximately 40 times | fluorescence with RNA compared with deoxyribonucleic acid (ribonucleic acid [6]; 120 μg/mL RNA or DNA in PBS): significantly stronger than the fluorescence after binding with deoxyribonucleic acid | tumor growth (tumor volume) ([7]; 1+Light, within 16 days of therapy): significantly inhibited | fluorescence intensity of the tumor site with the progress of the photodynamic therapy ([7]; intratumor injection 50 μL (1 mM) per 100 mm^3, 0-10 min during and 10-60 min after therapy): increases significantly | fluorescence at the tumor site after the photodynamic therapy ([7]; probe with light irradiation): bright fluorescence at the tumor site | TUNEL staining of tumor tissue section ([7]; probe with photodynamic therapy): died in the apoptosis pathway | HE staining of tumor tissue section ([7]; probe with photodynamic therapy (third group)): seriously damaged | fluorescence at the tumor site without the photodynamic therapy ([7]; probe, fed in darkness): weak fluorescence at the tumor site | rate of reactive oxygen species production (DCFH fluorescence at 529 nm) versus probe alone and RB [8]: significantly higher | cell viability after photodynamic therapy (HeLa cells [9]): greatly reduced | increase of fluorescence intensity after binding with ribonucleic acid compared with the probe itself (Ribonucleic acid (RNA); RNA 1.6 mM in PBS, 5 min, excitation 500 nm, emission 600 nm): more than 100 times | fluorescence with RNA compared with deoxyribonucleic acid (Ribonucleic acid (RNA); RNA 1.6 mM, DNA 1.6 mM): significantly stronger than that of the probe after binding with deoxyribonucleic acid | fluorescence response to other biomolecules (Ribonucleic acid (RNA); amino acids, hydrogen peroxide, metal ions 10 mM): no obvious fluorescence response | hydroxyl radicals generation (APF fluorescence at 514 nm) ([10]; 2 μM probe + 0.8 mM RNA): more hydroxyl radicals are generated | hydroxyl radicals generation (APF fluorescence at 514 nm) ([10]; 2 μM probe alone): can effectively generate hydroxyl radicals | cell morphology after light irradiation (symbol of cell apoptosis) (HeLa cells [11]): many vesicles form near cell membrane | fluorescence intensity of the cells after photodynamic therapy versus group without photodynamic therapy (HeLa cells [12]): enhanced significantly | location of the probe before photodynamic therapy ([13]; darkness): located in the mitochondria | location of the probe after photodynamic therapy ([13]; mercury lamp 510-560 nm): migration of the photosensitized probe to the cytoplasm and nucleolus regions | oxygenous radicals generation (ESR) ([14]; 2 μM probe + 0.8 mM RNA): more oxygenous radicals can be generated | oxygenous radicals generation (ESR) ([14]; 2 μM probe alone): can effectively generate oxygenous radicals | intensity of green fluorescence of DCFH-DA (reactive oxygen species level in the cells) after irradiation (HeLa cells [15]): increases remarkably | dark toxicity (HeLa cells [16]; 24 h): very low and negligible | cell viability in darkness (HeLa cells [16]; incubation 24 h, darkness): ~100%
